Measured values as given in ChEMBL document CHEMBL4507311, “Data for DCP probe A-1155463” (2021).

Legend:
[1] = biological target: Mitogen-activated protein kinase kinase kinase 20 (Homo sapiens) (UniProt Q9NYL2); details: Compound concentration 1000.0 nM
[2] = test system: Mast/stem cell growth factor receptor Kit (Homo sapiens), P10721 [D816H]; details: Compound concentration 1000.0 nM
[3] = biological target: Calcium-dependent protein kinase 1 (Plasmodium falciparum) (UniProt P62344); details: Compound concentration 1000.0 nM
[4] = biological target: 5-hydroxytryptamine receptor 1E (Homo sapiens) (UniProt P28566); details: Compound concentration 10.0 uM
Chain of 5-hydroxytryptamine receptor 1E (Homo sapiens) (P28566 whole entry): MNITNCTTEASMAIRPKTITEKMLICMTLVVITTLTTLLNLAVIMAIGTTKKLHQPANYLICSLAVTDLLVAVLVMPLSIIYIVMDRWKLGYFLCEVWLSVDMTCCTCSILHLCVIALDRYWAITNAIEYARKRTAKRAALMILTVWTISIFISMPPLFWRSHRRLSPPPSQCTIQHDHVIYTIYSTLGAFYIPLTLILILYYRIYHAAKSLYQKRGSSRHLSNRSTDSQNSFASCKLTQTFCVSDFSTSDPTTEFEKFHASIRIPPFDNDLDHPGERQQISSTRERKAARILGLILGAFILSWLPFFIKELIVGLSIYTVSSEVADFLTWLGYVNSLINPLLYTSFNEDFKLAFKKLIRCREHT

[5] = biological target: Serine/threonine-protein kinase Sgk2 (Homo sapiens) (UniProt Q9HBY8); details: Compound concentration 1000.0 nM
[6] = biological target: Serine/threonine-protein kinase PLK2 (Homo sapiens) (UniProt Q9NYY3); details: Compound concentration 1000.0 nM
[7] = biological target: Myosin light chain kinase 2, skeletal/cardiac muscle (Homo sapiens) (UniProt Q9H1R3); details: Compound concentration 1000.0 nM
[8] = biological target: cAMP-dependent protein kinase catalytic subunit alpha (Homo sapiens) (UniProt P17612); details: Compound concentration 1000.0 nM
[9] = biological target: Tyrosine-protein kinase Tec (Homo sapiens) (UniProt P42680); details: Compound concentration 1000.0 nM
[10] = biological target: Serine/threonine-protein kinase 32B (Homo sapiens) (UniProt Q9NY57); details: Compound concentration 1000.0 nM
Chain of Serine/threonine-protein kinase 32B (Homo sapiens) (Q9NY57 whole entry): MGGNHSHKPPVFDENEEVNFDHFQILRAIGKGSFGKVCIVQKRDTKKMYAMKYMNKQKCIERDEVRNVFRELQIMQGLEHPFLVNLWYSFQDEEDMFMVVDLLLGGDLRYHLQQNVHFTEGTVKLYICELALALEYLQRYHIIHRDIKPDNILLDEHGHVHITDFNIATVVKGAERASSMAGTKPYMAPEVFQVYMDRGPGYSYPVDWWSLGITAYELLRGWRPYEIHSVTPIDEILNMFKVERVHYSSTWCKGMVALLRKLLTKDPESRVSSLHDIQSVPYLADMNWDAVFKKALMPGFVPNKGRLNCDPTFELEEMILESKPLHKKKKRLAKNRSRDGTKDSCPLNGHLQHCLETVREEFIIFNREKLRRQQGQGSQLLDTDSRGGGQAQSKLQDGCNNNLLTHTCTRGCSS

[11] = biological target: Receptor-interacting serine/threonine-protein kinase 1 (Homo sapiens) (UniProt Q13546); details: Compound concentration 1000.0 nM
[12] = biological target: Serine/threonine-protein kinase pim-2 (Homo sapiens) (UniProt Q9P1W9); details: Compound concentration 1000.0 nM
Chain of Serine/threonine-protein kinase pim-2 (Homo sapiens) (Q9P1W9 whole entry, looked up): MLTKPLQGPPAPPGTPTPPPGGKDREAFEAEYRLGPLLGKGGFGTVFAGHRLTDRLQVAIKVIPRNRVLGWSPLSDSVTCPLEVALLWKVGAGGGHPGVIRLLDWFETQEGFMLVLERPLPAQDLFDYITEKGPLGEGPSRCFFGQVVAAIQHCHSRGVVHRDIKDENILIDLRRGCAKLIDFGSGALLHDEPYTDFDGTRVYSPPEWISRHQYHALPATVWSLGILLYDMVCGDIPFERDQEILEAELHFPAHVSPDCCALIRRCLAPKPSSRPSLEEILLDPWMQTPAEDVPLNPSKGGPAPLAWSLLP

[13] = biological target: Serine/threonine-protein kinase MRCK beta (Homo sapiens) (UniProt Q9Y5S2); details: Compound concentration 1000.0 nM
[14] = test system: Tyrosine-protein kinase ABL1 (Homo sapiens), P00519 [T315I]; details: Compound concentration 1000.0 nM
[15] = test system: Tyrosine-protein kinase ABL1 (Homo sapiens), P00519 [Q252H]; details: Compound concentration 1000.0 nM
[16] = biological target: LIM domain kinase 1 (Homo sapiens) (UniProt P53667); details: Compound concentration 1000.0 nM
[17] = biological target: Serine/threonine-protein kinase 4 (Homo sapiens) (UniProt Q13043); details: Compound concentration 1000.0 nM
Chain of Serine/threonine-protein kinase 4 (Homo sapiens) (Q13043 whole entry): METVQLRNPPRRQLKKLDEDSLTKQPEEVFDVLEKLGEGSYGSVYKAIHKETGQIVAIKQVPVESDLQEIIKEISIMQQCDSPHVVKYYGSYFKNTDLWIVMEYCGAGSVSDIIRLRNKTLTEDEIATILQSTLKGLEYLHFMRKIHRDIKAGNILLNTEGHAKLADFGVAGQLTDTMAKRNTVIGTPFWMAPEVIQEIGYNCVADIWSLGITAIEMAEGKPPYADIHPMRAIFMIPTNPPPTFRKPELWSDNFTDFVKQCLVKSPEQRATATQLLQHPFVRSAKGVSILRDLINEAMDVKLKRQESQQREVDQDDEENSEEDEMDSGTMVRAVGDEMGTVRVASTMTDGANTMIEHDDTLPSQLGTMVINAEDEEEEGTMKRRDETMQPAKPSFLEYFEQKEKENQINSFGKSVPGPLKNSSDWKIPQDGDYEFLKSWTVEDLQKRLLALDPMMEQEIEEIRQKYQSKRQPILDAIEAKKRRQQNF

[18] = biological target: BDNF/NT-3 growth factors receptor (Homo sapiens) (UniProt Q16620); details: Compound concentration 1000.0 nM
[19] = biological target: Death-associated protein kinase 1 (Homo sapiens) (UniProt P53355); details: Compound concentration 1000.0 nM
[20] = biological target: MAP kinase-activated protein kinase 5 (Homo sapiens) (UniProt Q8IW41); details: Compound concentration 1000.0 nM
[21] = biological target: Homeodomain-interacting protein kinase 4 (Homo sapiens) (UniProt Q8NE63); details: Compound concentration 1000.0 nM
[22] = biological target: Platelet-derived growth factor receptor alpha (Homo sapiens) (UniProt P16234); details: Compound concentration 1000.0 nM
[23] = GPCRScan assay: inhibition of GABA/PBR; design: species or system Rattus norvegicus; radioligand conc. used [nm] 0.3 – 2.0, parental cells brain tissue
[24] = biological target: Calcium/calmodulin-dependent protein kinase type II subunit beta (Homo sapiens) (UniProt Q13554); details: Compound concentration 1000.0 nM
Chain of Calcium/calmodulin-dependent protein kinase type II subunit beta (Homo sapiens) (Q13554 whole entry): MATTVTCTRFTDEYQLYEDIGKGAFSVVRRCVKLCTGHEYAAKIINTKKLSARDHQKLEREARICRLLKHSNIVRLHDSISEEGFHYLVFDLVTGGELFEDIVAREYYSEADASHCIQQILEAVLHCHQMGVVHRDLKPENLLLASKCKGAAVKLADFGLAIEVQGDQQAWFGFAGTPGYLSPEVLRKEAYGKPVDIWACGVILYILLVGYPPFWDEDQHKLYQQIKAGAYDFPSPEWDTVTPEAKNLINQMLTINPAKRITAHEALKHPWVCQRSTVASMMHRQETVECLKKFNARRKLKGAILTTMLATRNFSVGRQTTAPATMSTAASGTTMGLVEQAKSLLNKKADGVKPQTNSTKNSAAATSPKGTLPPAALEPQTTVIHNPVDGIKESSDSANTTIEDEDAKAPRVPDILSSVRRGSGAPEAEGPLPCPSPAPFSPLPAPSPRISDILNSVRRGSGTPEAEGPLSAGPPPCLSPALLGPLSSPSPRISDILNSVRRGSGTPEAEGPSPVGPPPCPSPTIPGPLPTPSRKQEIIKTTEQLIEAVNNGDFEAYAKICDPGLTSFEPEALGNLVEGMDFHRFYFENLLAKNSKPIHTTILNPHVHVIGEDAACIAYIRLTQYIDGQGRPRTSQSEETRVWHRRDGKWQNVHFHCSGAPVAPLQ

[25] = biological target: Serine/threonine-protein kinase 26 (Homo sapiens) (UniProt Q9P289); details: Compound concentration 1000.0 nM
[26] = biological target: T1, 5-hydroxytryptamine receptor 3A (Homo sapiens) (UniProt P46098); details: Compound concentration 10.0 uM
T1 sequence (whole entry): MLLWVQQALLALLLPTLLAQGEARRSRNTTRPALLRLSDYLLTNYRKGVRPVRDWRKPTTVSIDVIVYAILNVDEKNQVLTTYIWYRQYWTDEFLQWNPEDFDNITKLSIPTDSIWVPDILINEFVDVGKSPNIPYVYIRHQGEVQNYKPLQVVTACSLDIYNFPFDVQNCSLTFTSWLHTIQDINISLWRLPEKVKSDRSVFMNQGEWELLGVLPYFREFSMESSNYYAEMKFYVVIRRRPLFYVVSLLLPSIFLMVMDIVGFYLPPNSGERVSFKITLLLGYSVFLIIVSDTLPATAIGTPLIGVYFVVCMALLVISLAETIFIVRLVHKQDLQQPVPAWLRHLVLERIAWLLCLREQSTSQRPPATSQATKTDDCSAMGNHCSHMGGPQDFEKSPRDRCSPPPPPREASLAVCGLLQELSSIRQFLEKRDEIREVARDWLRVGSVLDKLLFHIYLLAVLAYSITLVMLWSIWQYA

[27] = biological target: Tyrosine-protein kinase Lyn (Homo sapiens) (UniProt P07948); details: Compound concentration 1000.0 nM
Chain of Tyrosine-protein kinase Lyn (Homo sapiens) (P07948 2-512 limits assumed): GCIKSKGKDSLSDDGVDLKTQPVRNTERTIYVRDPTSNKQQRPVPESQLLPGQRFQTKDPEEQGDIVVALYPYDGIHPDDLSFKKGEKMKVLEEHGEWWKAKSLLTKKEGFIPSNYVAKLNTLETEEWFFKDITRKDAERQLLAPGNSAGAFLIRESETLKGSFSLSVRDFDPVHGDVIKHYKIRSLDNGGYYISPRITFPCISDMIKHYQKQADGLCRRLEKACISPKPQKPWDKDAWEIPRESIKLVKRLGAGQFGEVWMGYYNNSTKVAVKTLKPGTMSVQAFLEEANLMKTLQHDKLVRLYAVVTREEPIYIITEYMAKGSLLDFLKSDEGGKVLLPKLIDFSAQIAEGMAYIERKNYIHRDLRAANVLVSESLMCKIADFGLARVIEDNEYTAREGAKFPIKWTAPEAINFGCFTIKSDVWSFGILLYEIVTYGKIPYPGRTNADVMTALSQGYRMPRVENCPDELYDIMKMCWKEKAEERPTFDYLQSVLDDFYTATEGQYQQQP

[28] = biological target: Serine/threonine-protein kinase PAK 2 (Homo sapiens) (UniProt Q13177); details: Compound concentration 1000.0 nM
[29] = biological target: Peripheral plasma membrane protein CASK (Homo sapiens) (UniProt O14936); details: Compound concentration 1000.0 nM
Chain of Peripheral plasma membrane protein CASK (Homo sapiens) (O14936 whole entry): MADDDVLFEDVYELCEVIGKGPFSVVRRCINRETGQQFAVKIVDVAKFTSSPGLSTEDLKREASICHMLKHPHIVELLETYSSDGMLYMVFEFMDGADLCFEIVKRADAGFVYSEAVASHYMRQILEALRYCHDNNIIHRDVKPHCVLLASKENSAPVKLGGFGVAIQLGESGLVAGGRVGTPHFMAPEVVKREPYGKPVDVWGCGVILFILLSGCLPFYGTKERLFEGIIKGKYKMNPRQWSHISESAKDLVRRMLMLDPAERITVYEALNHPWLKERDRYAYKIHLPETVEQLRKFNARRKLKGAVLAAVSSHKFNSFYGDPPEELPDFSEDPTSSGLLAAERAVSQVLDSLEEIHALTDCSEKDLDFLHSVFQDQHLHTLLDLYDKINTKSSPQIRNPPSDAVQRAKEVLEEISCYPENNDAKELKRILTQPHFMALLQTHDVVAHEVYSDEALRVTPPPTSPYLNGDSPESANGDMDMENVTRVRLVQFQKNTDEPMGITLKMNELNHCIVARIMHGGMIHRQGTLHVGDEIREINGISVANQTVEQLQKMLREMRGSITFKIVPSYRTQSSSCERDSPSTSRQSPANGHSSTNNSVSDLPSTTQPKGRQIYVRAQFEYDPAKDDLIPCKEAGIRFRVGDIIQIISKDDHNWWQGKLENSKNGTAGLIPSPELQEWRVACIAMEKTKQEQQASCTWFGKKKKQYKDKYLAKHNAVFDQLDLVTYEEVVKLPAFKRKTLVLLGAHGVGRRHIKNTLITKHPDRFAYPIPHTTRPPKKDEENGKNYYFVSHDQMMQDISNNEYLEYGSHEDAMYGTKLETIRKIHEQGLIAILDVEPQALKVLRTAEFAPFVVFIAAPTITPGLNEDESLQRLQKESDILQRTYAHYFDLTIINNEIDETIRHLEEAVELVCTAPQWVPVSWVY

[30] = biological target: Non-receptor tyrosine-protein kinase TYK2 (Homo sapiens) (UniProt P29597); details: Compound concentration 1000.0 nM
[31] = biological target: Ribosomal protein S6 kinase alpha-4 (Homo sapiens) (UniProt O75676); details: Compound concentration 1000.0 nM
[32] = biological target: NUAK family SNF1-like kinase 2 (Homo sapiens) (UniProt Q9H093); details: Compound concentration 1000.0 nM
[33] = biological target: Tyrosine-protein kinase receptor TYRO3 (Homo sapiens) (UniProt Q06418); details: Compound concentration 1000.0 nM
[34] = biological target: Serine/threonine-protein kinase Chk2 (Homo sapiens) (UniProt O96017); details: Compound concentration 1000.0 nM
Chain of Serine/threonine-protein kinase Chk2 (Homo sapiens) (O96017 whole entry): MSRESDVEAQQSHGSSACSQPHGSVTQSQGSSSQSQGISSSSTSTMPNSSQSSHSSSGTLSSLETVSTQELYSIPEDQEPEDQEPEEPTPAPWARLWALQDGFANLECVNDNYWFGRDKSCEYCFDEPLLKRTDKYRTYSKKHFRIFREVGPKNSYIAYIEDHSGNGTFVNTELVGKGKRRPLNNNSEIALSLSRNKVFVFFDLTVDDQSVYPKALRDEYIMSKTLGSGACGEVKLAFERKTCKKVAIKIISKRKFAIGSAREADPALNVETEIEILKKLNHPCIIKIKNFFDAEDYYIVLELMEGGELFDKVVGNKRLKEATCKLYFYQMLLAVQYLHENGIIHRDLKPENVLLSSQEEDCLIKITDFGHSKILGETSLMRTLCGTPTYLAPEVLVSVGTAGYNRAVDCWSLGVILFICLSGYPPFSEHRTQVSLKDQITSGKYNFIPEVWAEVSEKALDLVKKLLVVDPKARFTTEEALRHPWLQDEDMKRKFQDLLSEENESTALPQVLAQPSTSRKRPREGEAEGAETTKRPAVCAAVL

[35] = biological target: Rhodopsin kinase GRK7 (Homo sapiens) (UniProt Q8WTQ7); details: Compound concentration 1000.0 nM
[36] = biological target: Mitogen-activated protein kinase kinase kinase 2 (Homo sapiens) (UniProt Q9Y2U5); details: Compound concentration 1000.0 nM
[37] = biological target: G protein-coupled receptor kinase 3 (Homo sapiens) (UniProt P35626); details: Compound concentration 1000.0 nM
[38] = biological target: cGMP-dependent protein kinase 2 (Homo sapiens) (UniProt Q13237); details: Compound concentration 1000.0 nM
[39] = biological target: Cyclin-dependent kinase 16 (Homo sapiens) (UniProt Q00536); details: Compound concentration 1000.0 nM
Chain of Cyclin-dependent kinase 16 (Homo sapiens) (Q00536 whole entry): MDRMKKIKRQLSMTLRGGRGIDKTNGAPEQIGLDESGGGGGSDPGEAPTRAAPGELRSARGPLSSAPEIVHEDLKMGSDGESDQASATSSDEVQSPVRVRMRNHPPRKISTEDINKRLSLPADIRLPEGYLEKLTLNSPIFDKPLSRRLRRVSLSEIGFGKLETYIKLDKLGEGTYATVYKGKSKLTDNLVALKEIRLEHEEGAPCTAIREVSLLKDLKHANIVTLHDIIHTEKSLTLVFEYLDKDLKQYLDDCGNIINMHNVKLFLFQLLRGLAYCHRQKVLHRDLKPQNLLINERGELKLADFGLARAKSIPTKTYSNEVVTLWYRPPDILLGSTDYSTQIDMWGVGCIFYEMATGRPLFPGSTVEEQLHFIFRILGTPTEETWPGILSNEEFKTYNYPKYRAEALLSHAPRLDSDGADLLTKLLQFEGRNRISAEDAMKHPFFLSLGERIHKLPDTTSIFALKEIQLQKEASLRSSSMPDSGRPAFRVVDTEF

Compound: CN(C)CC#Cc1ccc(OCCCc2sc(N3CCc4cccc(C(=O)Nc5nc6ccccc6s5)c4C3)nc2C(=O)O)c(F)c1 [A-1155463]
- residual activity [1]: 100%
- residual activity [2]: 71%
- residual activity [3]: 100%
- inhibition [4]: -4.32%
- residual activity [5]: 100%
- residual activity [6]: 94%
- residual activity [7]: 100%
- residual activity [8]: 89%
- residual activity [9]: 97%
- residual activity [10]: 95%
- residual activity [11]: 92%
- residual activity [12]: 100%
- residual activity [13]: 87%
- residual activity [14]: 51%
- residual activity [15]: 94%
- residual activity [16]: 97%
- residual activity [17]: 100%
- residual activity [18]: 100%
- residual activity [19]: 91%
- residual activity [20]: 99%
- residual activity [21]: 100%
- residual activity [22]: 100%
- Ki [23]: 0.794 µM
- pKi [23]: 6.1
- residual activity [24]: 79%
- residual activity [25]: 80%
- inhibition [26]: 85.4%
- residual activity [27]: 100%
- residual activity [28]: 93%
- residual activity [29]: 100%
- residual activity [30]: 85%
- residual activity [31]: 96%
- residual activity [32]: 82%
- residual activity [33]: 94%
- residual activity [34]: 100%
- residual activity [35]: 97%
- residual activity [36]: 75%
- residual activity [37]: 92%
- residual activity [38]: 86%
- residual activity [39]: 100%
